Source: patent US20260132115A1, “SUBSTITUTED 3-FLUOROBENZENEPROPANOATE COMPOUND AND PREPARATION METHOD THEREFOR, PHARMACEUTICAL COMPOSITION THEREOF, AND USE THEREOF” (TIANJIN GUDUI BIO-PHARM CO., LTD., priority 2022, published 2026)
Like-named read-outs stand apart in the source and are kept apart here.

How the values were obtained:
[1] = In vivo pharmacokinetic assay in rats (gavage, plasma); conditions: female, Sprague Dawley, po, prototype drug in rat plasma, dose equimolar to 50 mg/kg flurbiprofen; for half-life: read-out: Prototype Drug t1/2 (converted)
Procedure: Experimental method: Adult female Sprague Dawley rats, aged 8-10 weeks and weighing 200±20 g, were randomly grouped, with 3 rats in each group. Rats in each of the groups were administered by gavage at a dose of 50 mg/kg of flurbiprofen and an equimolar dose of other example compounds to 50 mg/kg of flurbiprofen, respectively. After gavage administration, blood was collected at 0.0833 […], and 24 h into sodium heparin anticoagulant tubes, respectively. The blood was collected by the following method: 250 μL of blood were collected from the orbital venous plexuses of the rats. After blood collection, the blood samples were centrifuged at 12000 rpm in a centrifuge for 5 min. All plasma was aspirated into a 1.5-mL centrifuge tube, and the plasma was stored in a refrigerator at -80° C. The pharmacokinetic parameters were determined by the external standard curve method. Sample processing: after the cryopreserved samples were removed and restored to room temperature, the samples were vortexed evenly and then diluted two folds with methanol; the sample solution was diluted 5 folds by adding a mixed extractant of 0.5% formic acid-containing acetonitrile:methanol=7:3, and subjected to vortex oscillation for 1 min. Subsequently, the resultant was centrifuged at 4° C. and 12000 rpm for 10 min, and then 5 μL of the supernatant was measured for assay. The pharmacokinetic parameters in the Examples were calculated using the Winnonlin software.

[2] = test system: rats with CIA; test: Analgesic and anti-inflammatory effects on collagen-induced rheumatoid arthritis (CIA) in rats; assay type: in vivo, Lewis rats; conditions: for paw volume effect as compared to the flurbiprofen group: left hind limb, 14-day intervention, 10 mg/kg (FIG. 3); for MWT effect as compared to the flurbiprofen group: left lower limb, 13-day intervention, 10 mg/kg (FIG. 4)
Procedure: Experimental method: Female Lewis rats, aged 6-8 weeks, were randomly grouped, with 8 rats in each group. Under the ambient temperature of 20.5° C. to 24.5° C. and the humidity of 40% to 70%, the light period was 12-h bright and 12-h dark. Type II collagen was mixed with Freund's incomplete adjuvant (IFA) at a ratio of 1:1 and fully emulsified on ice before use. 100 μL of the mixed solution was injected intradermally at the part 2 to 3 cm from the base of the rat tail, and 50 μL of the mixed solution was injected into the bases of both hind limbs separately. The rats in the blank control group were injected with an equal volume of saline. IFA was used for re-immunization 7 days later. […] Rats with a total score of more than 2 on both hind limbs were selected and randomly divided into a model group, a flurbiprofen group, a compound 33 group, a compound 2 group, a compound 13 group, a compound 20 group, and a compound 35 group according to the body weight, score and paw volume, and furthermore a blank control group was set up, with 8 rats in each group. The dosing […] was […], and the dosing time was 14 days. A corresponding volume of solvent was administered in the model group and the blank control group.
Test indicators: body weight, arthritis score, hind limb paw volume, and mechanical foot threshold (MWT).
Standard for arthritis score: 0=normal; 1=erythema and slight swelling observed at the ankle joint; 2=erythema and slight swelling observed from the ankle joint to the metatarsal joint or the metacarpal joint; 3=erythema and moderate swelling observed from the ankle joint to the metatarsophalangeal joint or the metacarpal joint; 4=erythema and severe swelling observed from the ankle joint to the metatarsal joint; the total score of all (four) paws was calculated, and the sum of the arthritis indices was up to 16 per rat.

[3] = test system: Eca-109; test: Antitumor potency, MTT method, Eca-109; assay type: cell-based; conditions: Homo sapiens, 72 h incubation
Procedure: (§1) Experimental method: The antitumor potency was tested by the MTT method. Tumor cells at the logarithmic phase were collected. The concentration of the cell suspension was adjusted. 100 μL of the cell suspension was added to each well. Cell plating was carried out and the cell density was adjusted to 1000 to 10000/well (the marginal wells were filled with sterile PBS). The cells were incubated at 5% CO2 and 37° C. until the cells adhered to the wall (96-well flat-bottomed plate). Drugs of different concentration gradients were added, 100 μL per well. Four replicates were set up. Under the conditions of 5% CO2 and 37° C., the cells were incubated for 72 h and observed under an inverted microscope. The prepared MTT solution (5 mg/mL) was added to the 96-well plate, 20 μL per well, mixed well, and incubated for 4 h under the conditions of 37° C. and 5% CO2. Afterwards, the liquid in the plate was discarded. 150 μL of DMSO was added to each well and oscillated for 3 min on a microplate reader. The OD value (optical density) was detected at 490 nm.
(§2) The inhibition rate of the drug against the tumor cell growth was calculated according to the following formula: […]

[4] = test system: Dry Yeast-Induced Rat Fever Models; test: Antipyretic effect on dry yeast-induced fever in rats; assay type: in vivo, SD rats; conditions: rectal temperature, 10 mg/kg intraperitoneal, 20 min before 20% dry yeast s.c.
Procedure: Experimental method: Male SD rats, aged 4 weeks, were randomly grouped, with 10 rats in each group. […] The rats were intraperitoneally injected with saline, the compounds of the present disclosure or the control drug flurbiprofen respectively, all of which were administered at a dose of 10 mg/kg and a dosing volume of 10 μL/g. At 20 min after administration, 20% active dry yeast suspension was injected subcutaneously. After modeling, the rectal temperatures were measured at 4 h and 8 h.

[5] = test system: MM.1S; test: Antitumor potency, MTT method, MM.1S; assay type: cell-based; conditions: Homo sapiens, MM1.S, 72 h incubation
Procedure: as §1, §2

[6] = test system: U87; test: Antitumor potency, MTT method, U87; assay type: cell-based; conditions: Homo sapiens, U-87 MG, 72 h incubation
Procedure: as §1, §2

[7] = test system: NUGC-4; test: Antitumor potency, MTT method, NUGC-4; assay type: cell-based; conditions: Homo sapiens, 72 h incubation
Procedure: as §1, §2

[8] = test system: λ-Carrageenan-Induced Rat Toe Swelling; test: Anti-inflammatory effect on λ-carrageenan-induced rat toe swelling; assay type: in vivo, SD rats; conditions: Rattus norvegicus, ip, 10 mg/kg intraperitoneal, 1 h before 1% λ-carrageenan
Procedure: Experimental method: Male SD rats weighing 150-160 g were randomly grouped, with 10 rats in each group. The rats were intraperitoneally injected with saline, the compounds of the present disclosure, and the control drug flurbiprofen or flurbiprofen axetil respectively, all of which were administered at a dose of 10 mg/kg and a dosing volume of 10 μL/g. At 1 h after administration, 100 μL of 1% λ-carrageenan was injected into the right hind toe of each rat to induce inflammation. Afterwards, the paw volume was measured every 1 h using a paw volume meter to calculate the swelling inhibition rate.

[9] = test system: H460; test: Antitumor potency, MTT method, H460; assay type: cell-based; conditions: Homo sapiens, NCI-H460, 72 h incubation
Procedure: as §1, §2

[10] = test system: U251; test: Antitumor potency, MTT method, U251; assay type: cell-based; conditions: Homo sapiens, U-251, 72 h incubation
Procedure: as §1, §2

[11] = 6 h, read-out: Toe Swelling Inhibition Rate at 6 h
[12] = 24 h, read-out: Toe Swelling Inhibition Rate at 24 h

## CC(C(=O)OCOC(=O)N1CCOCC1)c1ccc(-c2ccccc2)c(F)c1 (stereo not drawn) [Compound 2]
[1]
  AUC: 183 ± 85.9 ng·h/mL
  Cmax: 27.1 ± 7.2 ng/mL
  half-life: 14 ± 9.88 h
[2]
  paw volume effect as compared to the flurbiprofen group: better effects
  MWT effect as compared to the flurbiprofen group: slightly better or better effects
[3]
  IC50: 55.7 µM
[4]
  Temp. at 4 h After Dosing: 37.10 ± 0.17 °C
  Temp. at 8 h After Dosing: 37.32 ± 0.27 °C
[5]
  IC50: 41.7 µM
[6]
  IC50: > 100 µM
[7]
  IC50: 60 µM
[8]; [11]
  inhibition in vivo at 10 mg/kg: 42.9%
[8]; [12]
  inhibition in vivo at 10 mg/kg: 34.1%
[9]
  IC50: 90 µM
[10]
  IC50: > 100 µM

## Cc1cc(CO)c(O)c(COC(=O)C(C)c2ccc(-c3ccccc3)c(F)c2)c1 (stereo not drawn) [Compound 33]
[1]
  AUC: 8.75 ± 1.53 ng·h/mL
  Cmax: 1.56 ± 0.509 ng/mL
  half-life: 9.08 ± 1.44 h
[2]
  paw volume effect as compared to the flurbiprofen group: better effects
  MWT effect as compared to the flurbiprofen group: slightly better or better effects
[3]
  IC50: > 100 µM
[4]
  Temp. at 4 h After Dosing: 37.18 ± 0.18 °C
  Temp. at 8 h After Dosing: 37.27 ± 0.28 °C
[5]
  IC50: > 100 µM
[6]
  IC50: > 100 µM
[7]
  IC50: > 100 µM
[8]; [11]
  inhibition in vivo at 10 mg/kg: 55.5%
[8]; [12]
  inhibition in vivo at 10 mg/kg: 35.8%
[9]
  IC50: > 100 µM
[10]
  IC50: > 100 µM

## CC(C(=O)OCOC(=O)c1ccc(O)cc1)c1ccc(-c2ccccc2)c(F)c1 (stereo not drawn) [Compound 35]
[2]
  paw volume effect as compared to the flurbiprofen group: better effects
  MWT effect as compared to the flurbiprofen group: slightly better or better effects
[3]
  IC50: 29.6 µM
[4]
  Temp. at 4 h After Dosing: 37.15 ± 0.21 °C
  Temp. at 8 h After Dosing: 37.29 ± 0.30 °C
[5]
  IC50: 45.7 µM
[6]
  IC50: 60.3 µM
[7]
  IC50: 41.8 µM
[8]; [11]
  inhibition in vivo at 10 mg/kg: 54.6%
[8]; [12]
  inhibition in vivo at 10 mg/kg: 49.8%
[9]
  IC50: 32.6 µM
[10]
  IC50: 7.33 µM
